Test results published in US20230220206A1, “REJUVENATING AGENTS FOR ASPHALT RECYCLING” (BASF SE, priority 2020, published 2023).
Read-outs that look alike come from different tables or passages of the source.

How the values were obtained:
[1] = assay type: physicochemical; settings: bitumen extracted from RAP + 5% compound
[2] = Softening point of rejuvenated RAP bitumen; assay type: physicochemical; settings: bitumen extracted from RAP + 5% compound
[3] = MSCR test, percentage elastic recovery; assay type: physicochemical; settings: bitumen 20/30 + 5% compound
[4] = TD NMR relaxation time measurements (SE-CPMG, multicomponent fitting); assay type: physicochemical; settings: for 1/<1/T2e>: harmonic average relaxation time of the mobile components
Source text: TD NMR, also known as NMR relaxometry, is a known NMR technique and relies on measuring the relaxation times of the nuclear spin system instead of frequency-domain spectra. […] Also, sample preparation is much simpler as there are no concerns about sample homogeneity and no solvents are needed.
Like that, a clear distinction between protons in a solid, amorphous and liquid component can be made with good accuracy.
Bitumen 20/30 was rejuvenated with some of the here claimed rejuvenating agents according to example 1. The pure bitumen 20/30 as well as the rejuvenated bitumen 20/30 samples were then analyzed by TD NMR. To do so, all samples were heated up to 80° C. to allow filling of the samples into NMR tubes. After that, TD NMR measurements at 30° C., 80° C. and 140° C. were conducted using the SE-CMPG sequence. This sequence consists of a solid echo combined with a so-called CPMG (Carr-Purcell-Meiboom-Gill) train of subsequent spin echoes with alternating phase and is capable of recording the decay of coherence in the transverse nuclear magnetization over about 5 orders of magnitude in time. Depending on the measurement temperature, the experimental data were then fitted with semi-empirically selected multicomponent models involving several Gaussian and exponential components:
S(t)=[pg1 exp(−(t/T2g1)^2)+pg2 exp(−(t/T2g2)^2)]+pe1 exp(−t/T2e1)[pe2 exp(−t/T2e2)+pe3 exp(−t/T2e3)]
In order to assess the effect of temperature on the molecular mobility of the bitumen, experiments were conducted at temperatures of 30° C., 80° C. and 140° C., and the following models turned out to provide adequate fits of the respective normalized signal decay curves: • two Gaussians and one exponential at 30° C., • two Gaussians and two exponentials at 80° C., • three exponentials at 140° C.
From the fitting, different values can be obtained: • The p values (pg1, pg2, pe1, pe2 and pe3), indicating the signal fraction of the individual component scaled in the range from 0 to 1 • The T2 values (T2g1, T2g2, T2e1, T2e2 and T2e3), indicating the relaxation times that correspond to each of the individual components. The longer the relaxation time, the higher the molecular mobility of the respective component • In addition to the values T2e1, T2e2 and T2e3, we also calculated the average relaxation time of the mobile components, 1/<1/T2e>, for the temperatures at which more than one mobile component exist (80 and 140° C.). 1/<1/T2e> Is calculated as the harmonic average of the relaxation times involved:
[formula] • The type of the component, those being: • g1: the rigid component • g2: the partially mobile component • e1, e2 and e3: mobile components with increasingly high local molecular mobilities
It is believed that the rigid component g1 is directly correlated with the amount of the asphaltene aggregates. The mobile component(s) on the other hand can be attributed to the maltene phase.

[5] = Softening point of rejuvenated aged bitumen; assay type: physicochemical; settings: aged bitumen 50/70 PCK Schwedt + 5% compound
[6] = Softening point of rejuvenated aged bitumen; assay type: physicochemical; settings: aged bitumen 50/70 BP + 5% compound
[7] = MSCR elastic recovery of rejuvenated aged bitumen; assay type: physicochemical; settings: aged bitumen 50/70 BP + 5% compound
[8] = assay type: physicochemical; settings: aged bitumen 50/70 BP + 5% compound
[9] = bitumen 20/30 + 5% compound
[10] = assay type: physicochemical; settings: aged bitumen 50/70 PCK Schwedt + 5% compound
[11] = Low temperature performance, bending beam rheometer (BBR) at −16° C.; assay type: physicochemical
Experimental: Different bitumen samples were rejuvenated as in Example 1, and the BBR values S (flexural creep stiffness) and m […] were evaluated at −16° C. The results were compared to the not rejuvenated bitumen sample as well as to the bitumen rejuvenated with the benchmark RheoFalt® HP-AM (Comp. 1.3).

[12] = Loss tangent from DSR frequency sweep at 60° C.; assay type: physicochemical
Source text: In addition, it could be shown that additives according to the present invention perform most of the times better than the common benchmarks according to the standard testing techniques for the low, mid and high temperature range. What cannot be extracted from these measurements however is an indication of the working mechanism.

[13] = MSCR elastic recovery of rejuvenated RAP bitumen; assay type: physicochemical; settings: bitumen extracted from RAP + 5% compound
[14] = Softening point ring & ball of rejuvenated bitumen; settings: bitumen 20/30 rejuvenated with 5% of the compound, 180° C., 30 minutes
[15] = MSCR elastic recovery of rejuvenated aged bitumen; assay type: physicochemical; settings: aged bitumen 50/70 PCK Schwedt + 5% compound
[16] = labelling of the product itself; — = none; cited from earlier work
[17] = 30° C., bitumen 20/30 + additive
[18] = 80° C., bitumen 20/30 + additive
[19] = 140° C., bitumen 20/30 + additive
[20] = aged bitumen 50/70 BP + 5% compound

CCCCCCCCCCCCN1CCCC1=O [N-Dodecyl pyrrolidone]
η(135° C.) [mPas] [1]: 850 mPas
SP [° C.] [2]: 53.0 °C
MSCR % Rec. (0.1 kPa) [3]: 4%
MSCR % Rec. (1.6 kPa) [3]: 1%
MSCR % Rec. (3.2 kPa) [3]: 0%
T2e1 [4, 17]: 0.20 ms
T2g1 [4, 17]: 0.016 ms
T2g2 [4, 17]: 0.045 ms
pe1 ([4]; 30° C., mobile component, bitumen 20/30 + additive): 0.44
pg2 ([4]; 30° C., partially mobile component, bitumen 20/30 + additive): 0.17
pg1 ([4]; 30° C., signal fraction of rigid component, bitumen 20/30 + additive): 0.38
T2e1 [4, 18]: 0.50 ms
T2e2 [4, 18]: 2.53 ms
T2g1 [4, 18]: 0.017 ms
T2g2 [4, 18]: 0.054 ms
pe1 [4, 18]: 0.48
pe2 [4, 18]: 0.35
pg1 [4, 18]: 0.09
pg2 [4, 18]: 0.074
1/<1/T2e> ([4]; 80° C.): 0.76 ms
T2e1 [4, 19]: 0.21 ms
T2e2 [4, 19]: 4.76 ms
T2e3 [4, 19]: 25.72 ms
pe1 [4, 19]: 0.18
pe2 [4, 19]: 0.47
pe3 [4, 19]: 0.34
1/<1/T2e> ([4]; 140° C.): 1.0 ms
SP [° C.] [5]: 50.0 °C
SP [° C.] [6]: 51.0 °C
MSCR % Rec. (0.1 kPa) ([7]; 0.1 kPa): 5%
MSCR % Rec. (1.6 kPa) ([7]; 1.6 kPa): 2%
MSCR % Rec. (3.2 kPa) ([7]; 3.2 kPa): 0%
η(135° C.) [mPas] [8]: 950 mPas
η(135° C.) [mPas] [9]: 800 mPas
η(135° C.) [mPas] [10]: 700 mPas
S-value [MPa] (flexural creep stiffness) [11, 20]: 90 MPa
m-value [11, 20]: 0.43
S-value [MPa] (flexural creep stiffness) ([11]; bitumen 20/30 + 5% compound): 90 MPa
m-value ([11]; bitumen 20/30 + 5% compound): 0.44
tan δ ([12]; aged bitumen 50/70 BP + 5% compound, lowest frequency): 80
tan δ ([12]; aged bitumen 50/70 PCK Schwedt + 5% compound, lowest frequency): 100
tan δ ([12]; bitumen 20/30 + 5% compound, lowest frequency (0.01 rad/s)): 80
tan δ ([12]; bitumen extracted from RAP + 5% compound, lowest frequency): 70
MSCR % Rec. (0.1 kPa) ([13]; 0.1 kPa): 7%
MSCR % Rec. (1.6 kPa) ([13]; 1.6 kPa): 3%
MSCR % Rec. (3.2 kPa) ([13]; 3.2 kPa): 1%
SP [° C.] (softening point) [14]: 47.0 °C
MSCR % Rec. (0.1 kPa) ([15]; 0.1 kPa): 5%
MSCR % Rec. (1.6 kPa) ([15]; 1.6 kPa): 1%
MSCR % Rec. (3.2 kPa) ([15]; 3.2 kPa): 0%

CC(C)(COCC1CO1)COCC1CO1 (centres unmarked) [Neopentylglycol bis glycidylether]
MSCR % Rec. (0.1 kPa) [3]: 11%
MSCR % Rec. (1.6 kPa) [3]: 5%
MSCR % Rec. (3.2 kPa) [3]: 2%
η(135° C.) [mPas] [9]: 1,050 mPas
tox (toxicology/eco toxicology) [16]: Irritating
SP [° C.] (softening point) [14]: 52.0 °C
